From US9878982B2, “Pyridine derivatives and anti-mycobacterial use thereof” (priority 2014, dated 2018)
In brackets after ≈: the same amount, converted by molar mass. Where two headings read alike, the source gives them in different places.

Tests used:
[1] = test system: M. tuberculosis H37Rv; test: In vitro efficacy test using the H37Rv strain, Microplate Alamar Blue Assay (MABA) MIC; assay type: cell-based, Mycobacterium tuberculosis; conditions: for MIC: Mycobacterium tuberculosis, H37RV
[2] = test system: M. tuberculosis H37R; test: microbe, parasite or virus in culture; assay type: cell-based, Mycobacterium tuberculosis; conditions: for MIC: Mycobacterium tuberculosis, H37R, read-out: M. tuberculosis H37R LORA (MIC)
[3] = test system: Vero Cell; test: Vero cell cytotoxicity (IC50); assay type: cell-based; conditions: African green monkey kidney cells; for IC50: Chlorocebus sabaeus, Vero
[4] = test system: Mycobacterium tuberculosis (ATCC35801); test: In vivo efficacy in a mice model infected with M. tuberculosis by spray (lung bacteria load); conditions: female Balb/c mice, day 35, compared with the solvent treated group
[5] = in vitro; conditions: human
[6] = test system: Mycobacterium smegmatis strain ATCC19420; test: In vitro efficacy test using Mycobacterium smegmatis strain ATCC19420 (MIC); assay type: cell-based; conditions: CA-MHB + 0.02% Tween 80, 30° C., read after 72 hours
[7] = test system: Hela; test: Hela cell cytotoxicity (CC50); conditions: human cervical cancer cells; half of the toxic concentration
[8] = aerobic, 7H9 medium, Alamar Blue, read-out: M. tuberculosis H37Rv MABA (MIC)
[9] = aerobic, 7H9 medium, Alamar Blue

Compound | MIC [1, 8] [µg/mL] | MIC ([1]; wild-type H37Rv strain, two values per compound, read-out: MABA MIC vs. H37Rv) [µM] | MABA MIC vs. H37Rv ([1]; wild-type H37Rv strain, two values per compound) [µM] | MIC [2] [µg/mL] | IC50 [3] [µg/mL] | reduction of the amount of the bacteria in the lungs ([4]; 25 mg/kg by gavage once each working day for four weeks) [log] | CC50 [5] [µg/mL] | M. smegmatis ATCC19420 MIC [6] [µg/mL] | CC50_Hela [7] [µg/mL] | M. tuberculosis H37Rv MABA (MIC) [1, 9] [µg/mL] | M. tuberculosis H37R LORA (MIC) [2] [µg/mL] | Vero Cell (IC50) [3] [µg/mL] | reduction of the amount of the bacteria in the lungs ([4]; 15 mg/kg by gavage once each working day for four weeks) [log]
COc1nc2ccc(Br)cc2cc1[C@@H](c1ccccc1)[C@@](O)(CCN(C)C)c1cccc2ccccc12 [Bedaquiline, reference compound] | 0.03 | 0.06 | 0.05 | 0.2 (≈ 0.36 µM) | > 32 | 5.2 | > 64 |  |  |  |  |  | 
COc1ncc(C2CCCCC2)cc1C(c1ccccc1)C(O)(CCN(C)C)c1cccc2ccccc12 (centres unmarked) [Compound 103, 1-(5-cyclohexyl-2-methoxypyridin-3-yl)-4-(dimethylamino)-2-(naphthalen-1-yl)-1-phenylbutan-2-ol] | 0.76 |  |  | 1.48 (≈ 2.91 µM) | 32.3 (≈ 63.5 µM) |  |  | 0.125 | 57.72 (≈ 113 µM) |  |  |  | 
COc1ncc(C2CCCCC2)cc1C(c1ccccc1)C(O)(CCN(C)C)c1cccc2ccccc12 (centres unmarked) [Compound 104, 1-(5-cyclohexyl-2-methoxypyridin-3-yl)-4-(dimethylamino)-2-(naphthalen-1-yl)-1-phenylbutan-2-ol] |  |  |  |  |  |  |  | 0.5 | 19.18 (≈ 37.7 µM) | 1.45 | 1.52 | >50 | 
COc1ncc(-c2csc(Br)c2)cc1C(c1ccccc1)C(O)(CCN(C)C)c1cccc2ccccc12 (centres unmarked) [Compound 275] |  |  |  |  |  |  |  | 0.125 | >64 | 0.41 | 0.67 | >32 | 
CO[C@H]1/C=C/O[C@@]2(C)Oc3c(C)c(O)c4c(O)c(c(/C=N/N5CCN(C)CC5)c(O)c4c3C2=O)NC(=O)/C(C)=C\C=C\[C@H](C)[C@H](O)[C@@H](C)[C@@H](O)[C@@H](C)[C@H](OC(C)=O)[C@@H]1C [rifampicin] |  |  |  |  |  |  |  |  |  |  |  |  | 1.8
